According to the supplement of paper PMC3937590:

Columns and labels:
Assay in all cases: -log10 GI50 (growth inhibition 50%) (-log10(M)); higher = more potent growth inhibition
HCC1428 = tested on: HCC1428
In short: (§1)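 The reported figure is the negative logarithm of GI50, defined as the molar concentration that produces the set level of growth inhibition. The logarithm is base 10. It comes from a Gompertz curve fitted by nonlinear least squares to 72-hour luminescence data from breast cancer cell lines given nine doses in 1:5 serial dilution, in triplicate, with a time-zero plate as reference. A < qualifier marks values equal to the top dose.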

SKBR3 = tested on: SKBR3
In short: as §1

SUM52PE = tested on: SUM52PE
In short: as §1

BT20 = tested on: BT20
In short: as §1

184B5 = tested on: 184B5
In short: as §1

MCF10A = tested on: MCF10A
In short: as §1

BT474 = tested on: BT474
In short: as §1

MDAMB415 = tested on: MDAMB415
In short: as §1

SUM185PE = tested on: SUM185PE
In short: as §1

SUM229PE = tested on: SUM229PE
In short: as §1

MDAMB175VII = tested on: MDAMB175VII
In short: as §1

MDAMB361 = tested on: MDAMB361
In short: as §1

HCC1187 = tested on: HCC1187
In short: as §1

HCC1395 = tested on: HCC1395
In short: as §1

HCC1954 = tested on: HCC1954
In short: as §1

CAMA1 = tested on: CAMA1
In short: as §1

LY2 = tested on: LY2
In short: as §1

HCC1569 = tested on: HCC1569
In short: as §1

HCC3153 = tested on: HCC3153
In short: as §1

BT483 = tested on: BT483
In short: as §1

MCF10F = tested on: MCF10F
In short: as §1

SUM1315MO2 = tested on: SUM1315MO2
In short: as §1

MCF7 = tested on: MCF7
In short: as §1

MDAMB157 = tested on: MDAMB157
In short: as §1

SUM159PT = tested on: SUM159PT
In short: as §1

HCC38 = tested on: HCC38
In short: as §1

HS578T = tested on: HS578T
In short: as §1

HCC1143 = tested on: HCC1143
In short: as §1

HCC1937 = tested on: HCC1937
In short: as §1

600MPE = tested on: 600MPE
In short: as §1

SUM149PT = tested on: SUM149PT
In short: as §1

MDAMB453 = tested on: MDAMB453
In short: as §1

UACC812 = tested on: UACC812
In short: as §1

MDAMB134VI = tested on: MDAMB134VI
In short: as §1

HCC1419 = tested on: HCC1419
In short: as §1

MDAMB231 = tested on: MDAMB231
In short: as §1

ZR751 = tested on: ZR751
In short: as §1

MX1 = tested on: MX1
In short: as §1

184A1 = tested on: 184A1
In short: as §1

ZR75B = tested on: ZR75B
In short: as §1

MCF12A = tested on: MCF12A
In short: as §1

HCC1806 = tested on: HCC1806
In short: as §1

T47D_KBluc = tested on: T47D_KBluc
In short: as §1

HCC2185 = tested on: HCC2185
In short: as §1

AU565 = tested on: AU565
In short: as §1

BT549 = tested on: BT549
In short: as §1

HCC70 = tested on: HCC70
In short: as §1

SUM225CWN = tested on: SUM225CWN
In short: as §1

T47D = tested on: T47D
In short: as §1

Structure (SMILES): COc1cccc(-c2cc(=O)c3ccccc3o2)c1N
- -log10 GI50 (HCC1428): < 4
- -log10 GI50 (SKBR3): 4.73
- -log10 GI50 (SUM52PE): 4.92
- -log10 GI50 (BT20): 4.45
- -log10 GI50 (184B5): < 4.3
- -log10 GI50 (MCF10A): < 4.3
- -log10 GI50 (BT474): 4.58
- -log10 GI50 (MDAMB415): 4.6
- -log10 GI50 (SUM185PE): 4.88
- -log10 GI50 (SUM229PE): < 4.3
- -log10 GI50 (MDAMB175VII): 4.85
- -log10 GI50 (MDAMB361): 4.3
- -log10 GI50 (HCC1187): 5.39
- -log10 GI50 (HCC1395): < 4
- -log10 GI50 (HCC1954): < 4.3
- -log10 GI50 (CAMA1): 4.32
- -log10 GI50 (LY2): < 4.3
- -log10 GI50 (HCC1569): < 4.3
- -log10 GI50 (HCC3153): 4.1
- -log10 GI50 (BT483): 4.52
- -log10 GI50 (MCF10F): < 4.3
- -log10 GI50 (SUM1315MO2): < 4.3
- -log10 GI50 (MCF7): < 4.3
- -log10 GI50 (MDAMB157): < 4.3
- -log10 GI50 (SUM159PT): 4.03
- -log10 GI50 (HCC38): 4.29
- -log10 GI50 (HS578T): < 4.3
- -log10 GI50 (HCC1143): < 4
- -log10 GI50 (HCC1937): 4.5
- -log10 GI50 (600MPE): < 4.3
- -log10 GI50 (SUM149PT): 4.66
- -log10 GI50 (MDAMB453): < 4.3
- -log10 GI50 (UACC812): 4.65
- -log10 GI50 (MDAMB134VI): < 4
- -log10 GI50 (HCC1419): < 4
- -log10 GI50 (MDAMB231): < 4.3
- -log10 GI50 (ZR751): < 4.3
- -log10 GI50 (MX1): 4.39
- -log10 GI50 (184A1): < 4.3
- -log10 GI50 (ZR75B): 4.59
- -log10 GI50 (MCF12A): < 4.3
- -log10 GI50 (HCC1806): < 4.3
- -log10 GI50 (T47D_KBluc): < 4.3
- -log10 GI50 (HCC2185): 5.06
- -log10 GI50 (AU565): 5.12
- -log10 GI50 (BT549): 4.36
- -log10 GI50 (HCC70): < 4.3
- -log10 GI50 (SUM225CWN): 4.64
- -log10 GI50 (T47D): < 4.3

Structure (SMILES): O=C1NC(=O)/C(=C/c2ccc(-c3ccc(F)cc3O)o2)S1
- -log10 GI50 (HCC1428): 5.34
- -log10 GI50 (SKBR3): 4.4
- -log10 GI50 (SUM52PE): 4.69
- -log10 GI50 (BT20): 4.93
- -log10 GI50 (184B5): 4.65
- -log10 GI50 (MCF10A): < 4.18
- -log10 GI50 (BT474): 5.41
- -log10 GI50 (MDAMB415): < 4.48
- -log10 GI50 (SUM229PE): < 4.18
- -log10 GI50 (MDAMB175VII): 5.29
- -log10 GI50 (MDAMB361): 4.78
- -log10 GI50 (HCC1187): 5.77
- -log10 GI50 (HCC1395): 4.22
- -log10 GI50 (HCC1954): 5.46
- -log10 GI50 (CAMA1): < 4.18
- -log10 GI50 (LY2): 4.51
- -log10 GI50 (HCC1569): 4.54
- -log10 GI50 (HCC3153): < 4.18
- -log10 GI50 (BT483): 4.77
- -log10 GI50 (MCF10F): < 4.48
- -log10 GI50 (SUM1315MO2): 4.92
- -log10 GI50 (MCF7): 4.8
- -log10 GI50 (MDAMB157): < 4.48
- -log10 GI50 (SUM159PT): 5.23
- -log10 GI50 (HCC38): < 4.18
- -log10 GI50 (HS578T): 5.06
- -log10 GI50 (HCC1143): < 4.18
- -log10 GI50 (HCC1937): < 4.18
- -log10 GI50 (600MPE): 5.19
- -log10 GI50 (SUM149PT): 5
- -log10 GI50 (MDAMB453): 4.69
- -log10 GI50 (UACC812): 4.88
- -log10 GI50 (MDAMB134VI): 4.48
- -log10 GI50 (HCC1419): 4.69
- -log10 GI50 (MDAMB231): < 4.48
- -log10 GI50 (ZR751): 5.2
- -log10 GI50 (MX1): 4.66
- -log10 GI50 (184A1): 5.43
- -log10 GI50 (ZR75B): 5.04
- -log10 GI50 (MCF12A): 4.68
- -log10 GI50 (HCC1806): 5.25
- -log10 GI50 (T47D_KBluc): < 4.48
- -log10 GI50 (HCC2185): 4.91
- -log10 GI50 (AU565): 4.88
- -log10 GI50 (BT549): < 4.48
- -log10 GI50 (HCC70): 4.67
- -log10 GI50 (SUM225CWN): 5.47
- -log10 GI50 (T47D): 5.25

Structure (SMILES): CO[C@H]1C[C@@H]2CC[C@@H](C)[C@@](O)(O2)C(=O)C(=O)N2CCCC[C@H]2C(=O)O[C@H]([C@H](C)C[C@@H]2CC[C@@H](OCCO)[C@H](OC)C2)CC(=O)[C@H](C)/C=C(\C)[C@@H](O)[C@@H](OC)C(=O)[C@H](C)C[C@H](C)/C=C/C=C/C=C/1C [Everolimus]
- -log10 GI50 (HCC1428): 5.06
- -log10 GI50 (SKBR3): 6.84
- -log10 GI50 (SUM52PE): 7.73
- -log10 GI50 (184B5): 5.55
- -log10 GI50 (MCF10A): 6.08
- -log10 GI50 (BT474): 7.52
- -log10 GI50 (MDAMB415): 8.12
- -log10 GI50 (SUM185PE): 5.8
- -log10 GI50 (SUM229PE): 4.75
- -log10 GI50 (MDAMB175VII): 5.1
- -log10 GI50 (MDAMB361): 8.35
- -log10 GI50 (HCC1395): 4.98
- -log10 GI50 (CAMA1): 8.15
- -log10 GI50 (LY2): 7.52
- -log10 GI50 (HCC1569): 5.15
- -log10 GI50 (HCC3153): 4.85
- -log10 GI50 (BT483): 5.55
- -log10 GI50 (MCF10F): 6
- -log10 GI50 (SUM1315MO2): 5.23
- -log10 GI50 (MCF7): 6.46
- -log10 GI50 (MDAMB157): 4.63
- -log10 GI50 (SUM159PT): 6.36
- -log10 GI50 (HCC38): 6.25
- -log10 GI50 (HCC1143): 5.83
- -log10 GI50 (HCC1937): 6.1
- -log10 GI50 (600MPE): 4.7
- -log10 GI50 (SUM149PT): 5.42
- -log10 GI50 (MDAMB453): 7.59
- -log10 GI50 (UACC812): 7.49
- -log10 GI50 (MDAMB134VI): 7.27
- -log10 GI50 (HCC1419): 8.4
- -log10 GI50 (MDAMB231): 4.27
- -log10 GI50 (ZR751): 7.55
- -log10 GI50 (MX1): 5.33
- -log10 GI50 (184A1): 6.16
- -log10 GI50 (MCF12A): 4.87
- -log10 GI50 (HCC1806): 4.61
- -log10 GI50 (T47D_KBluc): 5
- -log10 GI50 (HCC2185): 7.93
- -log10 GI50 (BT549): 6.88
- -log10 GI50 (HCC70): 6.96
- -log10 GI50 (SUM225CWN): 7.62
- -log10 GI50 (T47D): 5.92
